Laboratory results reported in US7375122B2, “Compounds useful as pesticides” (Dow AgroSciences LLC, priority 2002, dated 2008).

Key:
Assay type in all cases: in vivo
[1] = tested on: Cotton Aphid (Aphis gossypll); test: Testing with Cotton Aphid, track sprayer application on infested cotton plants; conditions: for LC90: cotton aphid on cotton plants, track sprayer approx. 200 L/ha, count of living non-winged aphids
Experimental: Alcala cotton plants were grown from seed in 7-cm pots under greenhouse conditions until they reached 35 to 40 cm in height; approximately four weeks old with 5 to 6 true leaves. The plants were then stripped of all foliage except for the two uppermost true leaves. Two days prior to application, heavily infested leaf sections from a cotton aphid colony were cut and placed on each untreated leaf surface. Over the two days, all stages of the aphids abandon the excised host material and migrate to the succulent growth, predominantly the lower surface of the leaves. Plants were checked prior to application for even infestation levels. Treatments consisted of 4 replicates (plants) each with 2 leaves per plant.
Formulation of technical compound was in a solvent solution. For the top rate of each compound, 20 milligrams of technical material was dissolved in 2 milliliters (ml) of a 9:1 mixture of acetone:ethanol solvent. Once dissolved, an additional 18-ml of the solvent mix was added to yield a 1 mg/ml spray solution. Additional rates were then prepared by serial dilution.
Application was made by an automated tracksprayer (RC-Insecticide #1, Serial MS-9′-002, MANDEL Scientific Company Ltd.) equipped with a single TX6 SS hollow cone nozzle to simulate an over-the-top application by a boom sprayer. Spray pressure was set at 50 PSI, and the nozzle head was set approximately 40 cm above the leaf surface (depending on the leaf position it ranged from 35-45 cm). Track velocity and all other settings were calibrated to deliver approximately 200 L/ha. After application and drying, the plants were transferred and kept in controlled environment until assessment.
Assessment of compound efficacy is evaluated by counting all living non-winged stage aphids infesting each replicate using a dissecting microscope.

[2] = tested on: Sweetpotato Whitefly, Bemisia tabaci; test: Testing with Sweetpotato Whitefly, track sprayer application on egg-infested cotton plants; conditions: for LC90: sweetpotato whitefly on cotton plants, track sprayer, assessment at 13 days after application
Experimental: Greenhouse-grown cotton plants (ca. five weeks old, grown in 7×7 cm pots containing ca. 231 cm^3 of potting soil mixture) were prepared for whitefly infestation by removing all foliage except the first or second pair of fully expanded true leaves. These plants are then moved into the whitefly colony room of the insectary (temperature maintained at 27° C.), where they are surrounded by cotton or velvetleaf plants infested with all life stages of B. tabaci. Initial movement of B. tabaci adults onto the prepared cotton plants is encouraged by gently shaking the foliage of the surrounding infested cotton and velvetleaf foliage using a 1.5-meter long willow branch. The prepared plants are left in place within the whitefly colony, where they are exposed to adult female B. tabaci oviposition for ca. 48 hours.
At the end of the oviposition exposure period, adult whiteflies are dislodged from the prepared plants by passing compressed air just above the leaves while the leaves are gently disturbed by hand for ca. 15 seconds. The prepared plants, which are now infested with eggs of B. tabaci, are removed from the insectary and any remaining adults are removed from the foliage with a hand-held vacuum fitted with a cage to trap insects. Infested plants are then selected at random and arranged into treatment groups of two or three plants each. Leaves of plants to receive different treatments are separated by a distance of at least 5 cm.
Compounds are applied within 24 hours of removing cotton plants from exposure to oviposition within the B. tabaci colony. Immediately after application, plants are moved to a holding room with a temperature of 30° C. and relative humidity of ca. 60%. Compound efficacy was observed by an assessment at 13 days after application. At this evaluation time, whitefly nymphs that have successfully developed to the third and fourth nymphal stadia can be easily seen on the underside of each cotton leaf with the aid of an illuminated magnifying lens (equipped with a circular fluorescent tube). […]

[3] = tested on: Cat Flea (Cntenocephalides felis); test: Testing with Cat Flea, treated media infested with eggs; conditions: eggs held five weeks, adult fleas counted
Experimental: Media is prepared by mixing 1 part dried bovine blood, 4 parts ground dog food pellets, and 95 parts clean sand. Compounds are dissolved in acetone and further diluted in acetone to yield the required range of concentrations. The acetone solutions are applied to measured amounts of media in small dishes. Final concentrations are expressed as micrograms of compound per gram of media. After the acetone has dried, the treated media is dispensed into small glass vials and infested with 5 to 10 cat flea (Cntenocephalides fells) eggs. The vials are loosely capped and held under controlled conditions for five weeks. Activity is assessed based on the average number of adult cat fleas present in the treated vials compared to the average number of adult cat fleas in the media

SMILES | LC90 [1] | times more Comparative Compound A needed to reach the LC90 level than Compound Three ([1]; cotton aphid, ratio of LC90 values) | LC90 [2] | times more Comparative Compound A needed to reach the LC90 level than Compound Three ([2]; sweetpotato whitefly, ratio of LC90 values) | control of cat fleas ([3]; 0.1 μg/g rate in media) | control of cat fleas ([3]; 0.01 μg/g rate in media)
O=[N+]([O-])/C=C1\NCCN1Cc1ccc(Cl)nc1 [Comparative Compound A] | 9.1 grams per hectare | ~11.7 times | 6.66 grams per hectare | ~2.7 times | – | –
CN/C(=C(/C=O)[N+](=O)[O-])N(C)Cc1ccc(Cl)nc1 [Compound One] | – | – | – | – | 100% | –
O=C/C(=C1/NCCN1Cc1ccc(Cl)nc1)[N+](=O)[O-] [Compound Three] | less than 0.78 grams per hectare | – | less than 2.52 grams per hectare | – | 96% | 81%
